Entries after “also recorded” stand apart in the source; their conditions may differ.
What was measured:
[1] = tested on: HSV-2 GFP+ (bHSV2-BAC38-S1); experiment: HSV-2 GFP+ infection of MRC5 cells, live-cell fluorescence imaging; type: cell-based; conditions: for inhibition of fluorescent HSV-2 GFP+ infected cells: 24 hours post infection, 125 μM (FIG. 5A)
Protocol: FIG. 5A. Fluorescent images of MRC5 cells infected with HSV-2 GFP+(bHSV2-BAC38-S1). Images taken at 0 and 24 hours post infection using an Incucyte S3 Live-Cell Analysis System. Acyclovir at a matched concentration (125 μM) was used as a positive control. FIG. 5B. Live cell imaging analysis of triplicate wells infected with HSV-2 GFP+. Wells were treated with either Vehicle (0.1% DMSO), Acyclovir 125 μM, or JR002 125 μM. Images were collected at 2 hour intervals for 48 hours post infection. Relative fluorescent intensity (RFI) calculated as the percent increase in fluorescence intensity relative to time 0 post infection. Bars represent the standard error of the mean.
JR002 is the selenoglycoside homolog of TE3048, the thioglycoside for which data for inhibition of HSV-1 was shown above. In FIG. 5A., the lower right quadrant represents high level cell damage, fluorescent HSV-2 GFP+ infected cells 24 hours post infection (24HPI), vehicle only.

[2] = tested on: SARS-CoV-2 (USA_WA1/2020); conditions: highest non-toxic dose; Vero E6, 72 hr
Description: In this assay, viral infection and replication leads to a loss of host cell viability, which is indirectly measured by an endpoint assessment of host cell viability after 72 hr. The CPE reduction assay indirectly monitors the ability of compounds to inhibit viral replication and infection through various molecular mechanisms, including direct inhibition of viral entry or enzymatic processes as well as acting on host pathways that modulate viral replication. Compounds with antiviral activity protect the host cells from the CPE of the virus, increasing viability.
Protocol: Vero E6 cells were premixed with SARS-CoV-2 for 5-10 min, dispensed into assay ready plates (pre-dispensed with compounds and controls). Cells and virus were incubated with compounds for 72 hr, then viability was assayed by Vero E6 host cell ATP content. 60 nL/well of compounds in DMSO was spotted into 384-well assay plates (Greiner, black clear bottom, tissue culture treated plates, #781091) by acoustic dispensing. In addition, 60 nL of the positive control Calpain inhibitor IV (stock concentration 2 mg/mL). 5 μL/well of media was dispensed into assay plates (MEM, 1% Pen/Strep/GlutaMax, 1% HEPES, 2% HI FBS). […] Luminescence signal was read on Perkin Elmer Envision or BMG CLARIOstar plate reader.

HSV-1 = type: cell-based, Herpes simplex 1; conditions: Vero cells, 4 hour treatment, low multiplicity HSV-1
SARS-CoV-2 spike protein = conditions: previously demonstrated; blocks N-glycan processing at the oligomannose stage; cited from earlier work

Nc1nc2c(ncn2COCCO)c(=O)[nH]1 [Acyclovir, reference compound]
inhibition of fluorescent HSV-2 GFP+ infected cells [1]: almost complete inhibition

CC(=O)NC1C(OC(C)=O)[C@H](OC(C)=O)C(COC(C)=O)O[C@H]1[Se]C/C=C(\C)CCC=C(C)C (stereo partly drawn) [JR002, Geranyl 2-acetamido-2-deoxy-3,4,6-tri-O-acetyl-1-seleno-3-D-glucopyranoside]
inhibition of HSV-2 replication / infectivity ([1]; 125 μM, imaging for 48 hours post infection): potent inhibition of infectivity; also recorded: significantly inhibits | inhibition of fluorescent HSV-2 GFP+ infected cells [1]: almost complete inhibition

CC(=O)N[C@@H]1[C@@H](OC(C)=O)[C@H](OC(C)=O)[C@@H](COC(C)=O)O[C@H]1SC/C=C(\C)CCC=C(C)C [TE3048, N,O-tetra-acetyl-GlcNAc-ß-S-geranyl]
inhibition of SARS-CoV-2 [2]: 60-70%

CC(=O)N[C@@H]1[C@@H](O)[C@H](O)[C@@H](CO)O[C@H]1SC/C=C(\C)CCC=C(C)C [TE3054, GlcNAc-ß-S-geranyl]
inhibition of HSV-1 infectivity / plaque formation (HSV-1): inhibitory

O=C1N[C@@H]2[C@@H](O)[C@@H](O)[C@H](O)[C@@H](CO)N2C1=O [kifunensine]
inhibition of N-glycan maturation and infectivity (SARS-CoV-2 spike protein): Inhibition of N-glycan maturation and infectivity

— patent US20260272965A1, “SELEN[…] OF GLY[…] ANTI-INFLAMMATORY AND ANTIVIRAL PHARMACEUTICALS” (priority 2023, published 2026)
